Data taken from article PMC10820264, “Combining Experimental and Computational Methods to Produce Conjugates of Anticholinesterase and Antioxidant Pharmacophores with Linker Chemistries Affecting Biological Activities Related to Treatment of Alzheimer’s Disease” (Molecules, 2024).
Where “and” joins values, the source holds several entries; their conditions need not be identical. Identical values can stand only once. Like-named read-outs stand apart in the source and are kept apart here. Marks after values point to notes of the source that are not given here.

What was measured:
Human erythrocyte AChE = Human erythrocyte AChE (Homo sapiens, UniProt P22303); test: biochemical; type: biochemical
Sequence of Human erythrocyte AChE (P22303 other isoform, or with tags, fused parts or gaps): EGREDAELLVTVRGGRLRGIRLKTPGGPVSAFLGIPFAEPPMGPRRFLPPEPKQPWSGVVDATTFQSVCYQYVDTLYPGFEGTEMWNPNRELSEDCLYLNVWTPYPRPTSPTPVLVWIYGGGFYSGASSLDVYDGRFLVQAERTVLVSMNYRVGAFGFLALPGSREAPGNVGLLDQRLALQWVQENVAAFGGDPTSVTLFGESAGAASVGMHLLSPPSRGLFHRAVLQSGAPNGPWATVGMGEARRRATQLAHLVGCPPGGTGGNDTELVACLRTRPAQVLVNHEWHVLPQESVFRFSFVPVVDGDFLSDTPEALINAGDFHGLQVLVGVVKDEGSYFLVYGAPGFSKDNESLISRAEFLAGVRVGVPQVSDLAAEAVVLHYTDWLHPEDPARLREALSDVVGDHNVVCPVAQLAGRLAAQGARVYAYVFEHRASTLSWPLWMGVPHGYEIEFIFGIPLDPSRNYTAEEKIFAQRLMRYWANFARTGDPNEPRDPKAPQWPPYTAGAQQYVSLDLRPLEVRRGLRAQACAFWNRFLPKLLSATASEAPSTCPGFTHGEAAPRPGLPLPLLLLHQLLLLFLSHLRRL
Protocol: (§1) Human erythrocyte AChE and equine serum BChE were purchased from Milamed (Perm, Russia). Porcine liver CES, substrates, and reference compounds were from Sigma-Aldrich (St. Louis, MO, USA). The activity of enzymes was measured spectrophotometrically, as described in detail in [72] using ATCh iodide, BTCh iodide, and 4-NPA as substrates for AChE, BChE, and CES, respectively. Experimental conditions: K,Na—phosphate buffer (100 mM), 25 °C, pH 7.5 for AChE and BChE and pH 8.0 for CES assay. Measurements were carried out on a FLUOStar Optima microplate reader (BMG Labtech, Ortenberg, Germany).
(§2) Test compounds were dissolved in DMSO; the final concentration of solvent in the incubation mixture was 2% (v/v).

equine serum BChE = equine serum BChE (Equus caballus, UniProt P81908); test: biochemical; type: biochemical
Sequence of equine serum BChE (P81908 whole entry): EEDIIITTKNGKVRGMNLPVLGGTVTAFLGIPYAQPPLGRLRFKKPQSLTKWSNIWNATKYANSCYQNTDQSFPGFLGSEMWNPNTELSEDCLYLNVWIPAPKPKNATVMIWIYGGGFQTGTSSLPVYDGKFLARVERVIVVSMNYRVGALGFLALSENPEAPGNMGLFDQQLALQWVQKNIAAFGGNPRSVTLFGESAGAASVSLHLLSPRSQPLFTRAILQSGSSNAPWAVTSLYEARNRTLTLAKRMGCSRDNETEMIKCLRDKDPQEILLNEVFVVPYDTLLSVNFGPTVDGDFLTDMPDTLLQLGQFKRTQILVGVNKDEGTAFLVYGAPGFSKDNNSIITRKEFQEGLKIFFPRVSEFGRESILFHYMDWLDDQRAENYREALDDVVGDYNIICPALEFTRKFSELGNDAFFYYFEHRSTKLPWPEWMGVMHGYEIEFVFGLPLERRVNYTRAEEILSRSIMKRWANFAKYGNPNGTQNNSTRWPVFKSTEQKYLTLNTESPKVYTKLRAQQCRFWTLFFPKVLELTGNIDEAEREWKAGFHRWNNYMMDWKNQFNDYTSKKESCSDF
Protocol: as §1, §2

Aβ42 = Aβ42 (Homo sapiens, UniProt P05067); test: Inhibition of Aβ42 self-aggregation, thioflavin T fluorescence; type: biochemical; settings: Aβ42 50 µM, compound 100 µM; for inhibition at 100 µM: read-out: Inhibition of Aβ42 Self-Aggregation
Sequence of Aβ42 (P05067 672-713): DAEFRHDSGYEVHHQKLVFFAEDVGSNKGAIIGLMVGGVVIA

[1] = ABTS radical cation scavenging assay; settings: for ABTS•+-Scavenging Activity TEAC: Trolox equivalents
[2] = system: free radicals in mouse brain homogenate (TBHP-initiated); type: biochemical; settings: read-out: Radical Scavenging Capacity, Luminol Chemiluminescence Assay IC50
Porcine liver CES = test: CES inhibition, spectrophotometric, 4-NPA substrate; type: biochemical
Protocol: as §1
Test compounds were dissolved in DMSO; the final concentration of solvent in the incubation mixture was 2% (v/v). […]

[3] = Ferric-reducing antioxidant power (FRAP) assay; settings: Trolox equivalents
[4] = biological target: peripheral anionic site of Electrophorus electricus AChE (EeAChE) (Electrophorus electricus, UniProt O42275); type: binding;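 further: compounds tested at 20 µM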
Sequence of peripheral anionic site of Electrophorus electricus AChE (EeAChE) (O42275 24-633): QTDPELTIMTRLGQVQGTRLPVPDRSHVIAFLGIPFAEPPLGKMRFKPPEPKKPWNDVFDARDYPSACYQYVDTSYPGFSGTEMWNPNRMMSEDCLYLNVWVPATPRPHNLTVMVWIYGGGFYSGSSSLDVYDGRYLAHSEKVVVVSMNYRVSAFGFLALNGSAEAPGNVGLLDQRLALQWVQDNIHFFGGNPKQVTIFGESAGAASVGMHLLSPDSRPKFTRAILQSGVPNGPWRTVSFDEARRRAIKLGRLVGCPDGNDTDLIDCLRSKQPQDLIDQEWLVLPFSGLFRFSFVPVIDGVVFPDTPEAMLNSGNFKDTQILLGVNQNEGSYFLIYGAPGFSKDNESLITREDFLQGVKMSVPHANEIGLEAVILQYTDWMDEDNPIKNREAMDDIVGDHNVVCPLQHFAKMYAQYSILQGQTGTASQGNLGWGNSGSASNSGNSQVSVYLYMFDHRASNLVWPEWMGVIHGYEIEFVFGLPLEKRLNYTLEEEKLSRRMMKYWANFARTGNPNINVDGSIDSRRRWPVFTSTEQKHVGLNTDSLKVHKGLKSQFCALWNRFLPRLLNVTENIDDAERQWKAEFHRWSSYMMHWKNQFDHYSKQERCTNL

[5] = system: spontaneous lipid peroxidation in mouse brain homogenate; type: biochemical

Row | Molecule | IC50 (Human erythrocyte AChE) [µM] | AChE activity relative to tacrine (times more active) (Human erythrocyte AChE; vs tacrine) | IC50 (equine serum BChE) [µM] | inhibition at 100 µM (Aβ42) [%] | IC50 [1] | time to reach the activity level of Trolox in ABTS radical scavenging ([1]; compound at 20 μM (IC50 of Trolox)) | IC50 [2] [µM] | CES % inhibition at 20 μM (Porcine liver CES) | Ferric-Reducing Antioxidant Power TE [3] | Propidium Displacement [4] | ABTS•+-Scavenging Activity TEAC [1] | Inhibition of Aβ42 Self-Aggregation (Aβ42) | inhibition at 20 µM (Human erythrocyte AChE; read-out: AChE % inhibition at 20 μM) [%] | inhibition at 20 µM (equine serum BChE; read-out: BChE % inhibition at 20 μM) [%] | IC50 ([5]; read-out: Inhibition of Spontaneous Lipid Peroxidation in Mouse Brain Homogenate, TBARS Assay IC50) [µM] | IC50 ([5]; read-out: Inhibition of spontaneous lipid peroxidation in mice brain homogenate (TBARS Assay) IC50) [µM]
1 | CC(C)(C)c1cc(CNCCCCCCCCNc2c3c(nc4ccccc24)CCCC3)cc(C(C)(C)C)c1O [17d, 2,6-Di-tert-butyl-4-{[8-(1,2,3,4-tetrahydro-acridin-9-ylamino)-octylamino]-methyl}-phenol] | 0.0151 ± 0.002 | ~ 40 times | 0.00756 ± 0.00042 | 71.4 ± 4.9 | 15.2 ± 0.7 µM | less than 1 min | 11.3 ± 1.5 | 23.6 ± 2.1% | 0.57 ± 0.01 | 13.4 ± 1.2% | – | – | – | – | – | –
2 | CC(C)(C)c1cc(CNCCNc2c3c(nc4ccccc24)CCCC3)cc(C(C)(C)C)c1O [17a, 2,6-Di-tert-butyl-4-{[2-(1,2,3,4-tetrahydro-acridin-9-ylamino)-ethylamino]-methyl}-phenol] | 2.88 ± 0.19 | – | 0.464 ± 0.041 | – | 16.7 ± 0.8 µM | – | – | 18.4 ± 1.1% | 0.52 ± 0.02 | 13.4 ± 1.1% | 1.20 ± 0.05 | – | – | – | – | –
3 | Cc1c(C)c2c(c(C)c1O)CCC(C)(C(=O)O)O2 (centres unmarked) [Trolox, 6-hydroxy-2,5,7,8-tetramethylchroman-2-carboxylic acid, reference compound] | – | – | – | – | 20 µM and 20.1 µM | – | – | – | 1.0 | – | 1.0 | – | – | – | – | –
4 | CC(C)(C)c1cc(C=NCCCCCCNc2c3c(nc4ccccc24)CCC3)cc(C(C)(C)C)c1O [13c, 2,6-Di-tert-butyl-4-{[6-(2,3-dihydro-1H-cyclopenta[b]quinolin-9-ylamino)-hexylimino]-methyl}-phenol] | 0.21 ± 0.01 | – | 0.172 ± 0.017 | – | 19.4 ± 0.9 µM | – | – | 31.3 ± 2.1% | 0.59 ± 0.01 | 16.5 ± 1.3% | 0.98 ± 0.04 | – | – | – | – | –
5 | CC(C)(C)c1cc(C=NCCCCNc2c3c(nc4ccccc24)CCC3)cc(C(C)(C)C)c1O [13b, 2,6-Di-tert-butyl-4-{[4-(2,3-dihydro-1H-cyclopenta[b]quinolin-9-ylamino)-butylimino]-methyl}-phenol] | 1.3 ± 0.07 | – | 0.351 ± 0.001 | – | 25.4 ± 1.6 µM | – | – | 32.7 ± 1.9% | 0.60 ± 0.02 | 20.0 ± 1.6 ***^,§ % | 0.78 ± 0.04 | – | – | – | – | –
6 | CC(C)(C)c1cc(CNCCCCCCCCNc2c3c(nc4ccccc24)CCC3)cc(C(C)(C)C)c1O [16d, 2,6-Di-tert-butyl-4-{[8-(2,3-dihydro-1H-cyclopenta[b]quinolin-9-ylamino)-octylamino]-methyl}-phenol] | 0.094 ± 0.006 | – | 0.017 ± 0.0016 | 54.6 ± 3.9 | 21.3 ± 1.2 µM | – | – | 17.2 ± 0.2% | 0.61 ± 0.01 | 13.9 ± 1.1% | 1.00 ± 0.03 | – | – | – | – | –
7 | CC(C)(C)c1cc(C=NCCCCCCCCNc2c3c(nc4ccccc24)CCC3)cc(C(C)(C)C)c1O [13d, 2,6-Di-tert-butyl-4-{[8-(2,3-dihydro-1H-cyclopenta[b]quinolin-9-ylamino)-octylimino]-methyl}-phenol] | 0.107 ± 0.009 | – | 0.0417 ± 0.0003 | 49.4 ± 4.3 | 22.7 ± 1.2 µM | – | – | 26.3 ± 1.7% | 0.71 ± 0.03 | 15.1 ± 0.9% | 0.85 ± 0.03 | – | – | – | – | –
8 | Propidium iodide [reference compound] | – | – | – | – | – | – | – | – | – | – | – | 89.3 ± 7.1 ^b % | – | – | – | –
9 | bis-4-nitrophenyl phosphate [BNPP, reference compound] | – | – | – | – | – | – | – | 99.1 ± 0.9% ^b | – | – | – | – | – | – | – | –
10 | Cc1cc(C(C)(C)C)c(O)c(C(C)(C)C)c1 [BHT, butylated hydroxytoluene, reference compound] | – | – | – | – | 22.4 ± 1.4 µM | – | 70.4 ± 4.1 | 5.6 ± 0.2% | 0.96 ± 0.02 | – | 0.98 ± 0.03 | not detectable | 6 ± 1.5 | 18.9 ± 1.7 | 6.9 ± 0.3 | 7
